Test results: patent US20240246964A1 (Arbutus Biopharma Corporation, priority 2021, published 2024)

Each molecule was assayed against human PD-L1 (Homo sapiens (Human), UniProt Q9NZQ7) (assay: T cell activation luciferase reporter cell culture system (T Cell Activation Assay)). Conditions: luciferase reporter assay; PD-L1 aAPC/CHO-K1 cells with PD-1 effector Jurkat T cells.
Assay type: cell-based

Chain of human PD-L1 (Q9NZQ7 19-290): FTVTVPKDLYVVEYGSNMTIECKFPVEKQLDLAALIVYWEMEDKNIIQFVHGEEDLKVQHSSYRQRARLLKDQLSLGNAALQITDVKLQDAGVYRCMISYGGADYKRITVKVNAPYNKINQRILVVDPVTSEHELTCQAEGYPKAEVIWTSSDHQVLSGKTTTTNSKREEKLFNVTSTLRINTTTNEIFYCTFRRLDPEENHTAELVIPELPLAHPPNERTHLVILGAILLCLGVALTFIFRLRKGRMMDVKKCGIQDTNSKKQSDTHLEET

EC50 | Compound
350 nM | COc1nc(-c2cccc(-c3ccnc(-c4cc(OC)c5nc(CN[C@H]6C[C@](C)(O)C6)nn5c4)c3Cl)c2Cl)ccc1CNC1CCN(C(C)=O)CC1 [Example 596, 1-(4-(((6-(2-Chloro-3-(3-chloro-2-(2-((((1r,3r)-3-hydroxy-3-methylcyclobutyl)amino)methyl)-8-methoxy-[1,2,4]triazolo[1,5-a]pyridin-6-yl)pyridin-4-yl)phenyl)-2-methoxypyridin-3-yl)methyl)amino)piperidin-1-yl)ethan-1-one]
16.4 nM | COc1nc(-c2cccc(-c3ccnc(-c4ccc(CN5CC6(CNC(=O)C6)C5)c(OC(F)F)c4)c3Cl)c2Cl)ccc1CN1CC2(CNC(=O)C2)C1 [Example 597, 2-((6-(2-Chloro-3-(3-chloro-2-(3-(difluoromethoxy)-4-((7-oxo-2,6-diazaspiro[3.4]octan-2-yl)methyl)phenyl)pyridin-4-yl)phenyl)-2-methoxypyridin-3-yl)methyl)-2,6-diazaspiro[3.4]octan-7-one]
36.8 nM | COc1nc(-c2cccc(-c3ccnc(-c4ccc(CN5CC6(C5)CN(C(C)=O)C6)c(OC(F)F)c4)c3Cl)c2Cl)ccc1CN1CC2(C1)CN(C(C)=O)C2 [Example 598, 1-(6-((6-(3-(2-(4-((6-Acetyl-2,6-diazaspiro[3.3]heptan-2-yl)methyl)-3-(difluoromethoxy)phenyl)-3-chloropyridin-4-yl)-2-chlorophenyl)-2-methoxypyridin-3-yl)methyl)-2,6-diazaspiro[3.3]heptan-2-yl)ethan-1-one]
≥ 10000 nM | COc1cc(-c2nccc(-c3cccc(-c4ccc(CNC5CC6(COC6)C5)c(OC)n4)c3C(F)(F)F)c2Cl)ccc1CNC1CC2(COC2)C1 (stereo not shown) [Example 604, N-((6-(3-(2-(4-(((2-Oxaspiro[3.3]heptan-6-yl)amino)methyl)-3-methoxyphenyl)-3-chloropyridin-4-yl)-2-(trifluoromethyl)phenyl)-2-methoxypyridin-3-yl)methyl)-2-oxaspiro[3.3]heptan-6-amine]
18.3 nM | COCCC(=O)N1CCC(NCc2ccc(-c3cccc(-c4ccnc(-c5ccc(CNC6CCN(C(C)=O)CC6)c(OC)c5)c4Cl)c3Cl)nc2OC)CC1 [Example 607, 1-(4-(((6-(3-(2-(4-(((1-Acetylpiperidin-4-yl)amino)methyl)-3-methoxyphenyl)-3-chloropyridin-4-yl)-2-chlorophenyl)-2-methoxypyridin-3-yl)methyl)amino)piperidin-1-yl)-3-methoxypropan-1-one]
22.4 nM | COc1nc(-c2ccnc(-c3cccc4c3CC[C@@H]4Oc3nc(OC)c(CNC4CCOCC4)cc3C(F)(F)F)c2Cl)ccc1CNC[C@@H]1CCC(=O)N1 [Example 608, (S)-5-((((3′-Chloro-6-methoxy-2′-((S)-1-((6-methoxy-5-(((tetrahydro-2H-pyran-4-yl)amino)methyl)-3-(trifluoromethyl)pyridin-2-yl)oxy)-2,3-dihydro-1H-inden-4-yl)-[2,4′-bipyridin]-5-yl)methyl)amino)methyl)pyrrolidin-2-one]
≥ 10000 nM | COc1nc(-c2cccc(-c3ccnc(-c4ccc5c(c4)S(=O)(=O)CCN(C[C@H](C)O)C5)c3Cl)c2Cl)ccc1CNC[C@@H]1CCC(=O)N1 [Example 611, (S)-5-((((6-(2-Chloro-3-(3-chloro-2-(4-((S)-2-hydroxypropyl)-1,1-dioxido-2,3,4,5-tetrahydrobenzo[f][1,4]thiazepin-8-yl)pyridin-4-yl)phenyl)-2-methoxypyridin-3-yl)methyl)amino)methyl)pyrrolidin-2-one]
≥ 10000 nM | COc1cc(-c2nccc(-c3cccc(-c4ccc(CNCCO)c(OC)n4)c3C(F)(F)F)c2Cl)ccc1CNCCO [Example 612, 2-(((6-(3-(3-Chloro-2-(4-(((2-hydroxyethyl)amino)methyl)-3-methoxyphenyl)pyridin-4-yl)-2-(trifluoromethyl)phenyl)-2-methoxypyridin-3-yl)methyl)amino)ethan-1-ol]
≥ 10000 nM | CNCc1ccc(-c2nccc(-c3cccc(-c4ccc(CNC)c(OC)n4)c3C(F)(F)F)c2Cl)cc1OC [Example 613, 1-(6-(3-(3-Chloro-2-(3-methoxy-4-((methylamino)methyl)phenyl)pyridin-4-yl)-2-(trifluoromethyl)phenyl)-2-methoxypyridin-3-yl)-N-methylmethanamine]
≥ 10000 nM | COCCNCc1ccc(-c2nccc(-c3cccc(-c4ccc(CNCCOC)c(OC)n4)c3C(F)(F)F)c2Cl)cc1OC [Example 614, N-((6-(3-(3-Chloro-2-(3-methoxy-4-(((2-methoxyethyl)amino)methyl)phenyl)pyridin-4-yl)-2-(trifluoromethyl)phenyl)-2-methoxypyridin-3-yl)methyl)-2-methoxyethan-1-amine]
36 nM | COCCC(=O)N1CCC(NCc2ccc(-c3cccc(-c4ccnc(-c5ccc(CN6CCC(O)CC6)c(OC)c5)c4Cl)c3Cl)nc2OC)CC1 [Example 616, 1-(4-(((6-(2-Chloro-3-(3-chloro-2-(4-((4-hydroxypiperidin-1-yl)methyl)-3-methoxyphenyl)pyridin-4-yl)phenyl)-2-methoxypyridin-3-yl)methyl)amino)piperidin-1-yl)-3-methoxypropan-1-one]
38.9 nM | COc1nc(-c2cccc(-c3ccnc(-c4ccc(CNC[C@@H]5CCC(=O)N5)c(OC(F)F)c4)c3Cl)c2Cl)ccc1CNC[C@@H]1CCC(=O)N1 [Example 617, (S)-5-((((6-(2-Chloro-3-(3-chloro-2-(3-(difluoromethoxy)-4-(((((S)-5-oxopyrrolidin-2-yl)methyl)amino)methyl)phenyl)pyridin-4-yl)phenyl)-2-methoxypyridin-3-yl)methyl)amino)methyl)pyrrolidin-2-one]
57.7 nM | COc1nc(-c2cccc(-c3ccnc(-c4ccc(CNC5CCOCC5)c(OC(F)F)c4)c3Cl)c2Cl)ccc1CNC1CCOCC1 [Example 618, N-((6-(2-Chloro-3-(3-chloro-2-(3-(difluoromethoxy)-4-(((tetrahydro-2H-pyran-4-yl)amino)methyl)phenyl)pyridin-4-yl)phenyl)-2-methoxypyridin-3-yl)methyl)tetrahydro-2H-pyran-4-amine]
44.9 nM | COc1nc(-c2cccc(-c3ccnc(-c4ccc(CNC5CCN(CCO)CC5)c(OC(F)F)c4)c3Cl)c2Cl)ccc1CNC1CCN(CCO)CC1 [Example 620, 2-(4-(((6-(2-Chloro-3-(3-chloro-2-(3-(difluoromethoxy)-4-(((1-(2-hydroxyethyl)piperidin-4-yl)amino)methyl)phenyl)pyridin-4-yl)phenyl)-2-methoxypyridin-3-yl)methyl)amino)piperidin-1-yl)ethan-1-ol]
216 nM | COc1cc(-c2ccnc(-c3cccc(-c4ccc(CN5CC6(CNC(=O)C6)C5)c(OC)n4)c3Cl)c2Cl)ccc1CN1CC2(CNC(=O)C2)C1 [Example 622, 2-(4-(3-Chloro-2-(2-chloro-3-(6-methoxy-5-((7-oxo-2,6-diazaspiro[3.4]octan-2-yl)methyl)pyridin-2-yl)phenyl)pyridin-4-yl)-2-methoxybenzyl)-2,6-diazaspiro[3.4]octan-7-one]
222 nM | COc1cc(-c2ccnc(-c3cccc(-c4ccc(CNC5CCOCC5)c(OC)n4)c3Cl)c2Cl)ccc1CNC1CCOCC1 [Example 623, N-(4-(3-Chloro-2-(2-chloro-3-(6-methoxy-5-(((tetrahydro-2H-pyran-4-yl)amino)methyl)pyridin-2-yl)phenyl)pyridin-4-yl)-2-methoxybenzyl)tetrahydro-2H-pyran-4-amine]
16.7 nM | COc1cc(-c2ccnc(-c3cccc(-c4ccc(CNC[C@@H]5CCC(=O)N5)c(OC)n4)c3Cl)c2Cl)ccc1CNC[C@@H]1CCC(=O)N1 [Example 624, (S)-5-(((4-(3-Chloro-2-(2-chloro-3-(6-methoxy-5-(((((S)-5-oxopyrrolidin-2-yl)methyl)-amino)methyl)pyridin-2-yl)phenyl)pyridin-4-yl)-2-methoxybenzyl)-amino)methyl)pyrrolidin-2-one]
79 nM | COc1cc(-c2ncnc(-c3cccc(-c4ccc(CNC5CCOCC5)c(OC)n4)c3Cl)c2Cl)ccc1CNC1CCOCC1 [Example 626, N-((6-(2-Chloro-3-(5-chloro-6-(3-methoxy-4-(((tetrahydro-2H-pyran-4-yl)amino)methyl)phenyl)pyrimidin-4-yl)phenyl)-2-methoxypyridin-3-yl)methyl)tetrahydro-2H-pyran-4-amine]
37.7 nM | COCCC(=O)N1CCC(NCc2ccc(-c3cccc(-c4ccnc(-c5ccc(CN6CC7(C6)CN(C(C)=O)C7)c(OC)c5)c4Cl)c3Cl)nc2OC)CC1 [Example 631, 1-(4-(((6-(3-(2-(4-((6-Acetyl-2,6-diazaspiro[3.3]heptan-2-yl)methyl)-3-methoxyphenyl)-3-chloropyridin-4-yl)-2-chlorophenyl)-2-methoxypyridin-3-yl)methyl)amino)piperidin-1-yl)-3-methoxypropan-1-one]
121 nM | COc1nc(-c2ccnc(-c3cccc4c3CC[C@@H]4Nc3nc(OC)c(CNC4CCN(C(C)=O)CC4)cc3C(F)(F)F)c2Cl)ccc1CNC[C@@H]1CCC(=O)N1 [Example 633, (S)-5-((((2′-((S)-1-((5-(((1-Acetylpiperidin-4-yl)amino)methyl)-6-methoxy-3-(trifluoromethyl)pyridin-2-yl)amino)-2,3-dihydro-1H-inden-4-yl)-3′-chloro-6-methoxy-[2,4′-bipyridin]-5-yl)methyl)amino)methyl)pyrrolidin-2-one]

Compound | EC50
COCCC(=O)N1CCC(NCc2ccc(-c3cccc(-c4ccnc(-c5ccc(CN6CC7(CNC(=O)C7)C6)c(OC)c5)c4Cl)c3Cl)nc2OC)CC1 [Example 625, 2-(4-(3-Chloro-4-(2-chloro-3-(6-methoxy-5-(((1-(3-methoxypropanoyl)piperidin-4-yl)amino)methyl)pyridin-2-yl)phenyl)pyridin-2-yl)-2-methoxybenzyl)-2,6-diazaspiro[3.4]octan-7-one] | 20.8 nM
COCCC(=O)N1CCC(NCc2ccc(-c3cccc(-c4ccnc(-c5ccc(CNC[C@H](C)O)c(OC)c5)c4Cl)c3Cl)nc2OC)CC1 [Example 632, (S)-1-(4-(((6-(2-Chloro-3-(3-chloro-2-(4-(((2-hydroxypropyl)amino)methyl)-3-methoxyphenyl)pyridin-4-yl)phenyl)-2-methoxypyridin-3-yl)methyl)amino)piperidin-1-yl)-3-methoxypropan-1-one] | 41.2 nM
